Laboratory results published in US20250215010A1, “DIAZABICYCLOOCTANE DERIVATIVES USEFUL AS MATRIX METALLOPROTEINASE INHIBITORS” (VASA THERAPEUTICS SPOLKA Z OGRANICZONA ODPOWIEDZIALNOSCIA, priority 2022, published 2025).
Where two headings read alike, the source gives them in different places.

Tests used:
Type in all cases: biochemical
MMP2 = target: T1, MMP2 (Homo sapiens, UniProt P08253); experiment: MMP-2 colorimetric inhibition assay (Enzo kit BML-AK408)
T1 sequence (P08253 110-660): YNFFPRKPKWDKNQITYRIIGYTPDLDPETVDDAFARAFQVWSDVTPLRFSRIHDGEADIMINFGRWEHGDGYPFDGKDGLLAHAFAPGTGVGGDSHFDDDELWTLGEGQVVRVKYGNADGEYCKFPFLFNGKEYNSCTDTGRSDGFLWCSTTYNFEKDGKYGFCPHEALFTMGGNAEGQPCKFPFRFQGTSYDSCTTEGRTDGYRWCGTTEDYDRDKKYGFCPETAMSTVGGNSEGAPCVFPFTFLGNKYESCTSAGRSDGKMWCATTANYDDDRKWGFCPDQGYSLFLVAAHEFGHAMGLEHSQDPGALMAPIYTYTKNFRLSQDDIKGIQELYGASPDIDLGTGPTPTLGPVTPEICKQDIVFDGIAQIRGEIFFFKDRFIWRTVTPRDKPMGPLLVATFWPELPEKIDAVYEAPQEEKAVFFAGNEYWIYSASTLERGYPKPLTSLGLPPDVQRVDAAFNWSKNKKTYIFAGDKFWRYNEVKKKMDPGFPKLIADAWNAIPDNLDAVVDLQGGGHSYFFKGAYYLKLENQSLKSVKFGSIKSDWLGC
In short: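 Cleavage of the thiopeptide Ac-PLG-[2-mercapto-4-methylpentanoyl]-LG-OC2H5 releases a sulfhydryl that reacts with DTNB, read at 415 nm per the kit protocol. IC50 values (nM) come from inhibition curves of normalized data.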

ADAM17 (TACE) = ADAM17 (TACE) (Homo sapiens, UniProt P78536); experiment: TACE fluorometric inhibition assay (Enzo kit BML-AK310)
In short: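 Kit-based TACE assay run per manufacturer's protocol, using quenched fluorogenic peptide Mca-PLAQAV-Dpa-RSSSR-NH2 whose cleavage raises Mca fluorescence. Signal read at ex/em 320/420 nm; IC50 (nM) derived from inhibition curves of normalized values.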

MMP1 = target: T2, MMP1 (Homo sapiens, UniProt P03956); experiment: MMP-1 colorimetric inhibition assay (Enzo kit BML-AK404)
T2 sequence (P03956 100-269 limits assumed): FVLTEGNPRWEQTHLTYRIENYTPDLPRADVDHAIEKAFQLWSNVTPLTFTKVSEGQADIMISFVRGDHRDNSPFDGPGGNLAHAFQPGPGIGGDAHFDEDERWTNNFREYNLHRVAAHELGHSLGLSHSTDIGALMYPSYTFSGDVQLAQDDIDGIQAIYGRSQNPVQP
In short: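 Colorimetric kit run per manufacturer protocol. MMP-1 cleaves a thiopeptide substrate (Ac-PLG-[2-mercapto-4-methylpentanoyl]-LG-OC2H5); released thiol reacts with DTNB, monitored at 415 nm. IC50 (nM) from inhibition curves of normalized values.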

MMP13 = target: T3, MMP13 (Homo sapiens, UniProt P45452); experiment: MMP-13 colorimetric inhibition assay (Enzo kit BML-AK412)
T3 construct: purchased Enzo Life Sciences, Inc. BML-AK412
In short: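 Thiopeptide chromogenic substrate (Ac-PLG-[2-mercapto-4-methylpentanoyl]-LG-OC2H5); MMP-13 hydrolysis of the thioester yields a thiol that reacts with DTNB, read at 415 nm. IC50 values (nM) derived from inhibition curves of normalized data.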

ADAM10 = target: T4, ADAM10 (Homo sapiens, UniProt O14672); experiment: SensoLyte 520 ADAM10 fluorometric activity assay (AnaSpec AS-72226)
T4 construct: purchased AnaSpec, Inc. AS-72226
T4 sequence (O14672 214-748): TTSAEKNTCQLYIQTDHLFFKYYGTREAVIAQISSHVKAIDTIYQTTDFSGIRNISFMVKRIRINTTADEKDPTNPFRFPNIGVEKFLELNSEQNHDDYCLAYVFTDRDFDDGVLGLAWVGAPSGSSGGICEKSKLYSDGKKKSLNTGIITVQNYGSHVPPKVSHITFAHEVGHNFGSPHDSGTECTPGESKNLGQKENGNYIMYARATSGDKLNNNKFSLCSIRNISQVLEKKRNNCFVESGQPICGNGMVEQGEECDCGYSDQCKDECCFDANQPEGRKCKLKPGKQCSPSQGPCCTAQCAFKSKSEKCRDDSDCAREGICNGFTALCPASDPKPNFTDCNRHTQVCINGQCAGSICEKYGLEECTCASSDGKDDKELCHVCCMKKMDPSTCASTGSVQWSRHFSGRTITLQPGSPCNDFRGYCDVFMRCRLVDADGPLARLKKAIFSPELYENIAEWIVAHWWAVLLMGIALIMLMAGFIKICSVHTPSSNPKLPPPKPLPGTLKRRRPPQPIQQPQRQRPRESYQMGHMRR
Method: The inhibitory activities of the compounds of the invention were assessed in 96-well microplate format using MMP1, MMP2, MMP9 and MMP13 colorimetric assay kits and TACE fluorometric assay kit from Enzo Life Sciences, Inc. The inhibitory effect of the compounds of the invention on ADAM10 activity were evaluated in 96-well microplate format using fluorometric assay from AnaSpec, Inc.
SensoLyte® 520 ADAM10 Activity Assay Kit (catalog #AS-72226) is a complete assay system designed to screen ADAM10 inhibitors using FRET-based peptide substrate containing the 5-FAM/QXL™ 520 fluorophore/quencher pair. The fluorescence of 5-FAM is quenched by QXL™ 520 and recovered upon cleavage of the peptide by active ADAM10.
The inhibitory activity of the compounds of the invention against ADAM10 was tested according to the manufacturer's assay protocol and the fluorescence was monitored at excitation/emission wavelengths=495 nm/520 nm using Tecan Infinite® 200 Pro F Nano^+ microplate reader.
The normalized values were analyzed using GraphPadPrism 9 for Windows (GraphPad Software, San Diego, CA, USA) software by plotting inhibition curves and determining the IC50 values (in nM).

MMP9 = MMP9 (Homo sapiens, UniProt P14780); experiment: MMP-9 colorimetric inhibition assay (Enzo kit BML-AK410)
In short: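 Colorimetric thioester-substrate assay: hydrolysis of Ac-PLG-[2-mercapto-4-methylpentanoyl]-LG-OC2H5 frees a thiol that reacts with DTNB, read at 415 nm. Run per kit protocol. IC50 (nM) taken from inhibition curves of normalized values.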

[1] = thiopeptide substrate, absorbance 415 nm, read-out: MMP 2 IC50 class
[2] = quenched fluorogenic peptide, ex/em 320/420 nm, read-out: TACE IC50 class
[3] = thiopeptide substrate, absorbance 415 nm, read-out: MMP 1 IC50 class
[4] = thiopeptide substrate, absorbance 415 nm, read-out: MMP 13 IC50 class
[5] = FRET peptide substrate, ex/em 495/520 nm, read-out: ADAM 10 IC50 class
[6] = thiopeptide substrate, absorbance 415 nm, read-out: MMP 9 IC50 class

Sequence of ADAM17 (TACE) (P78536 215-477 limits assumed): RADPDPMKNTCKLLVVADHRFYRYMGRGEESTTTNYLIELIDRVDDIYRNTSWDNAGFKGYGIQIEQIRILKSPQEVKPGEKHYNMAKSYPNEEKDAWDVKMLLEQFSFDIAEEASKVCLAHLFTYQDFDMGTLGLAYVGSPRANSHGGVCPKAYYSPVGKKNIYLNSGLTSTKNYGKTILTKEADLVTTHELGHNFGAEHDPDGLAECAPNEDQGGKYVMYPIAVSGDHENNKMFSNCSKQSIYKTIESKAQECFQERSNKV
Sequence of MMP9 (P14780 94-707): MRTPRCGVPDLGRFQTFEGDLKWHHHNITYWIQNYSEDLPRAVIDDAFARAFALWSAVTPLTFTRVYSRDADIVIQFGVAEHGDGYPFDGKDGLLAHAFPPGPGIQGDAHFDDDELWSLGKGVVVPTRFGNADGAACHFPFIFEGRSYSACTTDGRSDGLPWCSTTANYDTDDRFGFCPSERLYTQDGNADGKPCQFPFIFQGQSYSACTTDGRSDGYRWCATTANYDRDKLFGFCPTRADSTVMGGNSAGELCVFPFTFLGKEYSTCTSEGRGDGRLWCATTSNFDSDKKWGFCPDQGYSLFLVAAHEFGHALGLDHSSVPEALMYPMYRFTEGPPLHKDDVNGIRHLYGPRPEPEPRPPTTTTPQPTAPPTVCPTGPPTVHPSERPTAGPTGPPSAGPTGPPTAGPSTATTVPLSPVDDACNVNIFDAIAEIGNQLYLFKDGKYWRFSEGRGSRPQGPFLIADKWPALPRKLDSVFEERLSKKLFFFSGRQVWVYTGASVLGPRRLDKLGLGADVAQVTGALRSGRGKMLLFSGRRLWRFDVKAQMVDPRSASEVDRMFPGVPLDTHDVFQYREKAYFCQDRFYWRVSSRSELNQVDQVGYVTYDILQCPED

Compound | IC50 (MMP2; [1]) | IC50 (ADAM17 (TACE); [2]) | IC50 (MMP1; [3]) | IC50 (MMP13; [4]) | IC50 (ADAM10; [5]) | IC50 (MMP9; [6]) | IC50 (MMP2) | IC50 (ADAM17 (TACE)) | IC50 (MMP1) | IC50 (MMP13) | IC50 (ADAM10) | IC50 (MMP9)
CC(C)(C)C(=O)N1[C@@H]2CC[C@H]1[C@H](C(=O)NO)N(S(=O)(=O)c1ccc(Oc3ccc(OC(F)(F)F)cc3)nc1)C2 [Example 57, (1S,2R,5R)-N-hydroxy-8-pivaloyl-3-((6-(4-(trifluoro-methoxy)phenoxy)-pyridin-3-yl)-sulfonyl)-3,8-diazabicyclo-[3.2.1]octane-2-carboxamide] | < 50 nM | 1000 to 10000 nM | 1000 to 10000 nM | < 50 nM | > 10 µM | < 50 nM |  |  |  |  |  | 
COCCOC(=O)N1[C@@H]2CC[C@H]1[C@H](C(=O)NO)N(S(=O)(=O)c1ccc(Oc3ccc(C)cc3)nc1)C2 [Example 32, 2-methoxyethyl (1S,2R,5R)-2-(hydroxycarbamoyl)-3-((6-(p-tolyloxy)-pyridin-3-yl)-sulfonyl)-3,8-diazabicyclo[3.2.1]-octane-8-carboxylate] | < 50 nM | 1000 to 10000 nM | 50 to 1000 nM | < 50 nM | > 10 µM | < 50 nM |  |  |  |  |  | 
CC(=O)N1[C@@H]2CC[C@H]1[C@H](C(=O)NO)N(S(=O)(=O)c1ccc(Oc3ccc(F)cc3)nc1)C2 [Example 53, (1S,2R,5R)-8-acetyl-3-((6-(4-fluorophenoxy)pyridin-3-yl)sulfonyl)-N-hydroxy-3,8-diazabicyclo[3.2.1]octane-2-carboxamide] | < 50 nM | 1000 to 10000 nM | 50 to 1000 nM | < 50 nM | > 10 µM | < 50 nM |  |  |  |  |  | 
COc1ccc(Oc2ccc(S(=O)(=O)N3C[C@H]4CC[C@@H]([C@@H]3C(=O)NO)N4C(C)=O)cn2)cc1F [Example 63, (1S,2R,5R)-8-acetyl-3-((6-(3-fluoro-4-methoxyphenoxy)-pyridin-3-yl)-sulfonyl)-N-hydroxy-3,8-diazabicyclo[3.2.1]-octane-2-carboxamide] | < 50 nM | 1000 to 10000 nM | 1000 to 10000 nM | < 50 nM | 1 to 10 µM | < 50 nM |  |  |  |  |  | 
COCCOC(=O)N1[C@@H]2CC[C@H]1[C@H](C(=O)NO)N(S(=O)(=O)c1ccc(Oc3ccc(OC(F)(F)F)cc3)nc1)C2 [Example 19, 2-methoxyethyl (1S,2R,5R)-2-(hydroxycarbamoyl)-3-((6-(4-(trifluoro-methoxy)phenoxy)-pyridin-3-yl)-sulfonyl)-3,8-diaza-bicyclo[3.2.1]octane-8-carboxylate] | < 50 nM | 1000 to 10000 nM | 1000 to 10000 nM | < 50 nM | > 10 µM | < 50 nM |  |  |  |  |  | 
COCCOC(=O)N1[C@@H]2CC[C@H]1[C@H](C(=O)NO)N(S(=O)(=O)c1ccc(Oc3cnn(C)c3)c(F)c1)C2 [Example 41, 2-methoxyethyl (1S,2R,5R)-3-((3-fluoro-4-((1-methyl-1H-pyrazol-4-yl)oxy)phenyl)sulfonyl)-2-(hydroxycarbamoyl)-3,8-diazabicyclo[3.2.1]octane-8-carboxylate] | < 50 nM | 50 to 1000 nM | < 50 nM | < 50 nM | 0.05 to 1 µM | < 50 nM |  |  |  |  |  | 
O=C(NO)[C@H]1[C@@H]2CC[C@H](CN1S(=O)(=O)c1ccc(Oc3ccc(OCC(F)(F)F)cc3)nc1)N2C(=O)N1CCOCC1 [Example 72, (1S,2R,5R)-N-hydroxy-8-(morpholine-4-carbonyl)-3-((6-(4-(2,2,2-trifluoroethoxy)-phenoxy)pyridin-3-yl)sulfonyl)-3,8-diazabicyclo[3.2.1]-octane-2-carboxamide] |  |  |  |  |  |  | < 50 nM | > 10000 nM | 1000 to 10000 nM | < 50 nM | > 10 µM | < 50 nM
CCOc1ccc(Oc2ccc(S(=O)(=O)N3C[C@H]4CC[C@@H]([C@@H]3C(=O)NO)N4C(=O)OCCOC)cn2)cc1 [Example 29, 2-methoxyethyl (1S,2R,5R)-3-((6-(4-ethoxyphenoxy)-pyridin-3-yl)-sulfonyl)-2-(hydroxycarbamoyl)-3,8-diazabicyclo-[3.2.1]octane-8-carboxylate] | < 50 nM | 1000 to 10000 nM | 50 to 1000 nM |  | > 10 µM | < 50 nM |  |  |  | < 50 nM |  | 
COC(=O)N1[C@@H]2CC[C@H]1[C@H](C(=O)NO)N(S(=O)(=O)c1ccc(Oc3ccc(F)cc3)nc1)C2 [Example 66, methyl (1S,2R,5R)-3-((6-(4-fluoro-phenoxy)pyridin-3-yl)sulfonyl)-2-(hydroxycarbamoyl)-3,8-diazabicyclo-[3.2.1]octane-8-carboxylate] | < 50 nM | 1000 to 10000 nM | 1000 to 10000 nM | < 50 nM | > 10 µM | < 50 nM |  |  |  |  |  | 
COCCOC(=O)N1[C@@H]2CC[C@H]1[C@H](C(=O)NO)N(S(=O)(=O)c1ccc(Oc3ccc(F)cc3F)nc1)C2 [Example 21, 2-methoxyethyl (1S,2R,5R)-3-((6-(2,4-difluoro-phenoxy)pyridin-3-yl)sulfonyl)-2-(hydroxycarbamoyl)-3,8-diazabicyclo-[3.2.1]octane-8-carboxylate] | < 50 nM | 50 to 1000 nM | 50 to 1000 nM | < 50 nM | > 10 µM | < 50 nM |  |  |  |  |  | 
CC(=O)N1[C@@H]2CC[C@H]1[C@H](C(=O)NO)N(S(=O)(=O)c1ccc(Oc3ccc(OC(C)C)cc3)nc1)C2 [Example 58, (1S,2R,5R)-8-acetyl-N-hydroxy-3-((6-(4-isopropoxyphenoxy)-pyridin-3-yl)-sulfonyl)-3,8-diazabicyclo-[3.2.1]octane-2-carboxamide] | < 50 nM | > 10000 nM | 1000 to 10000 nM | < 50 nM | > 10 µM | < 50 nM |  |  |  |  |  | 
